Patent publication US20240199605A1, “SMALL MOLECULAR INHIBITORS OF NF-kB INDUCING KINASE” (Janssen Pharmaceutica NV, priority 2019, published 2024)

Tests used:
[1] = target: recombinant human NF-kappaB-inducing kinase (NIK/MAP3K14) (Homo sapiens (Human), UniProt Q99558); assay: Inhibition of auto-phosphorylation of recombinant human NIK/MAP3K14 (AlphaScreen); type: biochemical; conditions: NIK auto-phosphorylation, 5 μM ATP, 1 nM NIK, 2 h at 25° C.; average of values
Method in brief: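 GST-tagged NIK (1 nM) auto-phosphorylated with 5 μM ATP for 2 h at 25° C. in 50 mM Tris pH 7.5, 5 mM MgCl2, 1 mM EGTA, 1 mM DTT, 0.1 mM Na3VO4, 0.01% Tween 20 (0.7% DMSO). Detected by AlphaScreen via anti-phospho-IKK Ser176/180 antibody; IC50 from sigmoidal fit of % inhibition versus log concentration.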

[2] = test system: p-IKKα levels in L363 (NIK translocated multiple myeloma) cells; assay: Effect of compounds on p-IKKα levels in L363 cells (AlphaLISA SureFire Ultra); type: cell-based, human; conditions: Homo sapiens, L-363, 6 h, BAFF stimulated, MG132, 6 h, average of values, read-out: Assay 2 IC50
Method in brief: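 Inhibition of p-IKKα (Ser176/180) read by AlphaLISA after 6 h, 37 °C compound exposure (11-point 1:3 series, 0.3% DMSO) of L363 cells pre-incubated overnight ± 250 ng/ml BAFF and plated ± BAFF ± 10 μM MG132. Normalised to BAFF/MG132/DMSO and unstimulated controls; IC50 by sigmoidal fitting, duplicates.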

Chain of recombinant human NF-kappaB-inducing kinase (NIK/MAP3K14) (Q99558 whole entry): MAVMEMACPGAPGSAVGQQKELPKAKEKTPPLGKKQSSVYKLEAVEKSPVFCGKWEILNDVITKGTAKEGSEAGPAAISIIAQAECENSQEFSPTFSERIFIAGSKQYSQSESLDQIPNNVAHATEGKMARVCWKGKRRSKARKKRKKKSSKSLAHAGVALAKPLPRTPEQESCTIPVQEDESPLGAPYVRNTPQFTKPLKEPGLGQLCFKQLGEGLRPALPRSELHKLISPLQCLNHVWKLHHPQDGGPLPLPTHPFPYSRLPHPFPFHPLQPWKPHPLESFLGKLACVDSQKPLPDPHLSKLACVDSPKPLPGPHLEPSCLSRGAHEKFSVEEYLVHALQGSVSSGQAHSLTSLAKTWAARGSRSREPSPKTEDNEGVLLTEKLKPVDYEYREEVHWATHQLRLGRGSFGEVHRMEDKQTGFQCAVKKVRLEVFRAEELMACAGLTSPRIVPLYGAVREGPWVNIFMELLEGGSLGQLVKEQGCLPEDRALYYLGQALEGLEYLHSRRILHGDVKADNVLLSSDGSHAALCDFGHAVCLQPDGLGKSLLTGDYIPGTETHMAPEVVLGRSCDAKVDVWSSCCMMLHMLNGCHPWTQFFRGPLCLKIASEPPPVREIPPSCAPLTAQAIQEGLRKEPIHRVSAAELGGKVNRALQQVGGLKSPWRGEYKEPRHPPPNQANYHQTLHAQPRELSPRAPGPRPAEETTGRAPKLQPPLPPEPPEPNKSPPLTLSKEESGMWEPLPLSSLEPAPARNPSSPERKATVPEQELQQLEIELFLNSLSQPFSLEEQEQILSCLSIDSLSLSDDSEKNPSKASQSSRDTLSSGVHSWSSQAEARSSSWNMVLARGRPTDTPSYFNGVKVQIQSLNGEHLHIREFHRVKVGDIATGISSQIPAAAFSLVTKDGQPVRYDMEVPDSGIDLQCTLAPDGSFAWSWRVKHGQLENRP

SMILES	IC50 [1]	IC50 [2]
CN1CC[C@@](O)(C#Cc2cccc(-c3ccc4ncnc(N5CCCCC5)c4n3)c2)C1=O [Example 225, (R)-3-Hydroxy-1-methyl-3-((3-(4-(piperidin-1-yl)pyrido[3,2-d]pyrimidin-6-yl)phenyl)ethynyl)pyrrolidin-2-one]	6.1 nM	600 nM
Cc1nc(N)c2nc(-c3cccc(C#C[C@]4(O)CCN(C)C4=O)c3)cnc2n1 [Example 148, (R)-3-[2-[3-(4-Amino-2-methyl-pteridin-6-yl)phenyl]ethynyl]-3-hydroxy-1-methyl-pyrrolidin-2-one]	1.4 nM	370 nM
Nc1nccc2cnc(-c3cccc(C#C[C@]4(O)CCc5cccnc54)c3)nc12 [Example 45, (R)-7-[2-[3-(8-Aminopyrido[3,4-d]pyrimidin-2-yl)phenyl]ethynyl]-5,6-dihydrocyclopenta[b]pyridin-7-ol]	≤ 0.5 nM	17 nM
CN1CC[C@@](O)(C#Cc2cccc(-c3ccc4c(n3)c(N)nn4C)c2)C1=O [Example 21, (R)-3-[2-[3-(3-Amino-1-methyl-pyrazolo[4,3-b]pyridin-5-yl)phenyl]ethynyl]-3-hydroxy-1-methyl-pyrrolidin-2-one]	22 nM	590 nM
CN1CC[C@@](O)(C#Cc2cccc(-c3cc(F)c4ncnc(N)c4c3)c2)C1=O [Example 113, (R)-3-[2-[3-(4-Amino-8-fluoro-quinazolin-6-yl)phenyl]ethynyl]-3-hydroxy-1-methyl-pyrrolidin-2-one]	≤ 0.5 nM	92 nM
CN1CC[C@@](O)(C#Cc2cccc(-c3ccc4nc(C(F)(F)F)nc(N)c4n3)c2)C1=O [Example 176, (R)-3-((3-(4-Amino-2-(trifluoromethyl)pyrido[3,2-d]pyrimidin-6-yl)phenyl)ethynyl)-3-hydroxy-1-methylpyrrolidin-2-one]	1.4 nM	81 nM
Cc1nc(N)c2nc(-c3cccc(C#C[C@](C)(O)c4ccccn4)c3)ccc2n1 [Example 191, (S)-4-[3-(4-Amino-2-methyl-pyrido[3,2-d]pyrimidin-6-yl)phenyl]-2-(2-pyridyl)but-3-yn-2-ol]	15 nM	2980 nM
Cc1ccc(C#C[C@@](C)(O)c2nccs2)cc1-c1ccc2ccnc(N)c2c1 [Example 68, (R)-4-[3-(1-Amino-7-isoquinolyl)-4-methyl-phenyl]-2-thiazol-2-yl-but-3-yn-2-ol]	55 nM	> 5000 nM
CN1CC[C@@](O)(C#Cc2cccc(-c3cc(C4CCOCC4)c4ncnc(N)c4n3)c2)C1=O [Example 255, (R)-3-((3-(4-Amino-8-(tetrahydro-2H-pyran-4-yl)pyrido[3,2-d]pyrimidin-6-yl)phenyl)ethynyl)-3-hydroxy-1-methylpyrrolidin-2-one]	0.7 nM	15 nM
Cc1nc(N)c2nc(-c3cc(C#C[C@]4(O)CCN(C)C4=O)ccc3C)sc2n1 [Example 182, (R)-3-[2-[3-(7-Amino-5-methyl-thiazolo[5,4-d]pyrimidin-2-yl)-4-methyl-phenyl]ethynyl]-3-hydroxy-1-methyl-pyrrolidin-2-one]	1.2 nM	74 nM
Cc1cnc(C)c2nc(-c3cccc(C#C[C@]4(O)CCN(C)C4=O)c3)ccc12 [Example 252, (R)-3-((3-(5,8-Dimethyl-1,7-naphthyridin-2-yl)phenyl)ethynyl)-3-hydroxy-1-methylpyrrolidin-2-one]	31 nM	> 2000 nM
Cc1cc(C#C[C@]2(O)CCN(C)C2=O)cc(-c2ncc3c(C)cnc(N)c3n2)c1 [Example 76, (R)-3-[2-[3-(8-Amino-5-methyl-pyrido[3,4-d]pyrimidin-2-yl)-5-methyl-phenyl]ethynyl]-3-hydroxy-1-methyl-pyrrolidin-2-one]	2.3 nM	66 nM
CN1CC[C@@](O)(C#Cc2cccc(-c3ncc4ccnc(N)c4n3)c2)C1=O [Example 1, (R)-3-[2-[3-(8-Aminopyrido[3,4-d]pyrimidin-2-yl)phenyl]ethynyl]-3-hydroxy-1-methyl-pyrrolidin-2-one]	≤ 0.5 nM	3.7 nM
